Test results reported in the supplement of paper PMC10307832.

Legend:
Experiment in all cases: relative viability (nuclei count vs DMSO), 5 days (fraction); higher = more cells survive
[1] = compound: O=C(C[C@H]1NCCC[C@@H]1O)Cn1cnc2cc(Br)c(Cl)cc2c1=O (racemic) [Halofuginone] + CC(=O)c1c(C)c2cnc(Nc3ccc(N4CCNCC4)cn3)nc2n(C2CCCC2)c1=O [Palbociclib] (partner 0.5 µM)
Outline: (§1)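 Nuclei were stained with Hoechst during a one-step fixation (final 0.05% Triton X-100, 1% formaldehyde, 1 ug/ml Hoechst) carried out 5 days after dosing, then counted on 4× images. The cells, lung cancer lines in 1536-well plates, had been dosed by pin tool the day after seeding with one drug alone or a fixed anchor-drug dose plus five library-drug doses (not always all listed) in √10 steps. Relative viability is the nuclei count in treated wells divided by that in vehicle wells, and each value is the median of duplicate plates.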

Decitabine + Bortezomib = compound: Nc1ncn([C@H]2C[C@H](O)[C@@H](CO)O2)c(=O)n1 [Decitabine] + CC(C)C[C@H](NC(=O)[C@H](Cc1ccccc1)NC(=O)c1cnccn1)B(O)O [Bortezomib] (partner 0.002 µM)
Outline: as §1

Cediranib + Linsitinib = compound: COc1cc2c(Oc3ccc4[nH]c(C)cc4c3F)ncnc2cc1OCCCN1CCCC1 [Cediranib] + C[C@]1(O)C[C@@H](c2nc(-c3ccc4ccc(-c5ccccc5)nc4c3)c3c(N)nccn32)C1 [Linsitinib] (partner 1 µM)
Outline: as §1

| Cell Line | relative viability ([1]; first compound 0.001 µM) | relative viability ([1]; first compound 0.003162 µM) | relative viability ([1]; first compound 0.01 µM) | relative viability ([1]; first compound 0.03162 µM) | relative viability ([1]; first compound 0.1 µM) | relative viability (Decitabine + Bortezomib; first compound 0.04 µM) | relative viability (Decitabine + Bortezomib; first compound 0.1265 µM) | relative viability (Decitabine + Bortezomib; first compound 0.4 µM) | relative viability (Decitabine + Bortezomib; first compound 1.265 µM) | relative viability (Decitabine + Bortezomib; first compound 4 µM) | relative viability (Cediranib + Linsitinib; first compound 0.04 µM) | relative viability (Cediranib + Linsitinib; first compound 0.1265 µM) | relative viability (Cediranib + Linsitinib; first compound 0.4 µM) | relative viability (Cediranib + Linsitinib; first compound 1.265 µM) | relative viability (Cediranib + Linsitinib; first compound 4 µM) |
| --- | --- | --- | --- | --- | --- | --- | --- | --- | --- | --- | --- | --- | --- | --- | --- |
| NCI-H1651 | 0.523 | 0.515 | 0.51 | 0.513 | 0.509 | 0.96 | 0.936 | 0.824 | 0.682 | 0.76 | 0.888 | 1.11 | 0.991 | 0.95 | 1.04 |
| RERF-LC-KJ | 1.18 | 0.973 | 1.12 | 1.03 | 0.811 | 1.05 | 0.931 | 0.525 | 0.824 | 0.779 | 0.909 | 0.862 | 0.869 | 0.871 | 0.907 |
| NCI-H1755 | 0.436 | 0.479 | 0.421 | 0.491 | 0.418 | 0.814 | 0.877 | 0.808 | 0.492 | 0.381 | 0.997 | 1.06 | 0.967 | 0.972 | 1.03 |
| SK-MES-1 | 0.341 | 0.33 | 0.323 | 0.257 | 0.186 | – | – | – | – | – | 1.04 | 1.04 | 1.06 | 0.959 | 1.13 |
| NCI-H2126 | 0.362 | 0.344 | 0.347 | 0.346 | 0.354 | 0.984 | 0.975 | 0.648 | 0.655 | 0.591 | 0.769 | 0.708 | 0.683 | 0.592 | 0.722 |
| EPLC-272H | 0.306 | 0.33 | 0.339 | 0.361 | 0.314 | 0.884 | 0.57 | – | 0.584 | 0.418 | 1.17 | – | 1.16 | 1.18 | 1.29 |
| NCI-H1975 | 0.66 | 0.547 | 0.553 | 0.42 | 0.157 | 0.227 | 0.268 | 0.178 | 0.168 | 0.169 | 1.1 | 1.16 | 1 | 0.955 | 0.928 |
| NCI-H3122 | 0.186 | 0.155 | 0.162 | 0.186 | 0.19 | 0.973 | 0.987 | 0.968 | 0.782 | 0.725 | 1.01 | 1.07 | 0.986 | 1.02 | 1.03 |
| COR-L 105 | 0.441 | 0.403 | 0.396 | 0.392 | 0.413 | 0.463 | 0.65 | 0.378 | 0.494 | 0.422 | – | 0.909 | 0.946 | 0.972 | 0.938 |
| BEN | 0.487 | 0.471 | 0.441 | 0.473 | 0.385 | 0.779 | 0.779 | 0.539 | 0.427 | 0.481 | 1.16 | 0.799 | 0.82 | 0.9 | 0.647 |
| NCI-H1915 | 0.571 | 0.514 | 0.523 | 0.472 | 0.422 | 0.379 | 0.279 | 0.197 | 0.183 | 0.184 | 1.09 | 1.01 | 1.07 | 1.04 | 1.16 |
| NCI-H650 | 0.362 | 0.337 | 0.302 | 0.294 | 0.305 | 0.509 | 0.534 | 0.227 | 0.294 | 0.223 | 0.792 | 0.681 | 0.807 | 0.706 | 0.964 |
| NCI-H1703 | – | – | – | – | – | 0.243 | 0.258 | 0.2 | 0.182 | 0.176 | 0.458 | 0.452 | 0.372 | 0.26 | 0.183 |
| NCI-H1650 | 0.265 | 0.303 | 0.323 | 0.323 | 0.173 | 0.18 | 0.166 | 0.185 | 0.201 | 0.187 | – | – | – | – | – |
| NCI-H2009 | 0.349 | 0.252 | 0.218 | 0.201 | 0.157 | 0.765 | 0.571 | 0.301 | 0.305 | 0.243 | 1.2 | 1.18 | 1.18 | 1.19 | 1.16 |
| COR-L23 | 0.328 | 0.303 | 0.344 | 0.292 | 0.139 | 0.695 | 0.703 | 0.42 | 0.316 | 0.234 | 1.08 | 0.871 | 0.939 | 0.806 | 1.14 |
| NCI-H522 | 0.861 | 0.756 | 0.829 | 1.04 | 0.95 | – | – | – | – | – | – | – | – | – | – |
| NCI-H1563 | – | – | – | – | – | 0.801 | 1.02 | 1.16 | 0.987 | 0.908 | 1.27 | 1.32 | 1.22 | 1.3 | 1.22 |
| NCI-H1793 | 0.271 | 0.348 | 0.292 | 0.335 | 0.196 | – | – | – | – | – | 0.903 | 0.935 | 0.747 | – | 0.968 |
| NCI-H358 | 0.142 | 0.127 | 0.141 | 0.129 | 0.0899 | – | – | – | – | – | 0.919 | 0.745 | 0.681 | 0.717 | 0.899 |
| SW 900 | 0.626 | 0.483 | – | 0.622 | 0.215 | – | – | – | – | – | – | – | – | – | – |
| IA-LM | – | – | – | – | – | 0.44 | 0.54 | 0.257 | 0.172 | 0.185 | 0.629 | 0.772 | 0.586 | 0.436 | 0.634 |
| NCI-H2170 | 0.382 | 0.392 | 0.358 | 0.401 | 0.373 | – | – | – | – | – | – | – | – | – | – |
| EBC-1 | – | – | – | – | – | 0.395 | 0.406 | 0.29 | 0.268 | 0.257 | 1.14 | 1.05 | 0.882 | 0.609 | 0.802 |
| NCI-H1944 | 0.286 | 0.362 | 0.313 | 0.357 | 0.293 | – | – | – | – | – | 1.38 | 1.45 | 1.14 | 1.02 | 1.12 |
| LK-2 | 0.736 | 0.714 | 0.691 | 0.777 | 0.552 | – | – | – | – | – | 0.944 | 0.492 | 0.651 | 0.548 | 0.51 |
| NCI-H1299 | – | – | – | – | – | 1.01 | 0.988 | 0.965 | 0.867 | 0.865 | 1 | 0.977 | 0.96 | 0.988 | 0.947 |
| NCI-H596 | – | – | – | – | – | 1.02 | 0.873 | 0.845 | 0.847 | 0.855 | 1.16 | 1.07 | 1.11 | 1.05 | 1.09 |
